The text below walks through data of US5484793A, “Compounds derived from 6-azaindoles as ligands of the benzodiazepine receptor and medicaments containing them” (Centre National de la Recherche Scientifique (CNRS), priority 1991, dated 1996).

For data set [1], the target named is benzodiazepine receptor. As to conditions: in vitro; cited from earlier work.
For data set [2], the target named is benzodiazepine receptor. In words: In vitro affinity for the benzodiazepine receptor on rat cortex membrane. The data set is classed as binding. The procedure: A--In Vitro Tests on Cortex Membrane
The compounds of Examples 1 to 14 were tested on rat cortex membrane in order to determine their affinity for the benzodiazepine receptor.

For the next data set, the system named is female Swiss mice. In words: Passive avoidance test with learning in a single test (memory). The data set is classed as in vivo, mouse. As to conditions: 20 mg/kg intraperitoneal. As for the experimental part: Compound 1 was then tested on learning. This test, passive avoidance with learning in a single test, was carried out on 30 female Swiss mice aged two months. Compound 1 was administered to 15 mice at a dose of 20 mg/kg, the other 15 receiving an injection of physiological serum.
The equipment consists of a white box connected to a black box by a door. The white box is lit by a 100 W lamp placed at a distance of 25 cm and the black box, into which the mouse will spontaneously go because she feels safe in the darkness, contains an electrified metal floor. The boxes are coated with the smell of mice by an animal placed inside before each of the two series of 15 mice. […]
Ten minutes before learning, the marked mice receive an intraperitoneal injection of physiological serum or of Compound 1. […] The mice were then placed one by one in the illuminated white box and the arrival time in the black box is recorded. […]
After 24 hours, the avoidance test takes place: the mouse is placed in the white box and whether or not the mouse enters the black box in three minutes is recorded without any electrical shock being caused. If the mouse enters the black box in less than three minutes, the molecule tested has not improved the acquisition of the information "black box=electric shock" but if the time recorded is greater than three minutes, the molecule is assumed to have acted.

Data set [3] concerns GABA receptor/benzodiazepine receptor/chloride channel complexes. In words: Electrophysiological test on Xenopus oocyte (injected with chicken optical lobe mRNA), pharmacological profile. The data set is classed as cell-based. As to conditions: for change of the potential difference (PD) of the oocyte: 10^-6 M, in 10^-5 M GABA bath; for pharmacological profile at the benzodiazepine receptor: Xenopus oocyte. From the text: B--Pharmacological Property of the Compound of Example 1 Determination of the Pharmacological Profile
This study consists of an electrophysiological test on Xenopus oocyte. The cells of chicken optical lobes fortuitously have a good response to GABA. The total RNAs are extracted therefrom and passed through an oligo(dT) affinity column, thus making it possible to separate the crude messenger RNAs therefrom, because the latter have a poly(A) end tail which will combine by complementarity with the oligo(dT) residues of the column. These messenger RNAs will then be injected into a Xenopus oocyte, which is only a one and only cell. These oocytes will then be incubated and, in two days, the messenger RNAs will be expressed and will thus, by virtue of the cell machinery of the oocyte, have produced GABA receptor/benzodiazepine receptor/chloride channel complexes. These large protein entities will then migrate in the cell and will reach the membrane, thus making it possible for this receptor and the transmembrane ion channel which is combined with it to take its place.
The oocyte is then placed in a 10^-5 M GABA bath in Ringer solution and two microelectrodes A and B are introduced therein, a third microelectrode being placed outside the cell to act as reference. Microelectrode A will be used to measure the potential difference (PD) between the interior and the exterior of the oocyte. A PD of 60 mV is imposed on the oocyte and the microelectrode B will be used to maintain this desired PD.
By perfusing an agonist such as diazepam, the latter and the GABA present in the medium will exert an allosteric effect at the level of the receptor with, as corollary, opening of the ion channel. There will therefore be entry of chloride into the oocyte and the PD will greatly increase. On the other hand, an inverse agonist such as β-CCM will cause a reduction in the binding of the GABA to the receptor with, as consequence, a reduction in the time of opening of the chloride channel and a lower PD.
An antagonist will occupy the binding site of the benzodiazepine receptor but will have no effect on the binding of the GABA. The opening of the chloride channel will therefore not be disturbed and the PD will not vary.

Data set [4] has as its system mice belonging to the ABP/Le strain. In words: In vivo convulsant properties in ABP/Le mice. As to conditions: 20 mg/kg intraperitoneally, 14 mice, observation after 30 minutes. The arrangement: species or system mouse. As for the experimental part:
Compound 1 was tested first for its convulsant properties. The test was carried out on 14 mice (5 males and 9 females) aged two months belonging to the ABP/Le strain. This particular strain is very sensitive to convulsions induced by β-carbolines. Compound 1 was administered intraperitoneally at a dose of 20 mg/kg and observation took place after 30 minutes. […] The compound is therefore not convulsant.

The subject of data set [5] is benzodiazepine receptor. Conditions: cited from earlier work.
Another data set deals with man. As to conditions: cited from earlier work.
For data set [6] the following is noted: in vivo (anxiolytic, anticonvulsant, and the like); cited from earlier work.
Another data set has as its system mice. As to conditions: facilitating convulsions caused by other agents such as pentylenetetrazole; cited from earlier work.
Data set [7] concerns the target central receptors of benzodiazepines. Conditions: in vitro, rat brain; read-out: IC50 at central benzodiazepine receptors; cited from earlier work.
For data set [8] the following is noted: in vivo; cited from earlier work.
The conditions of data set [9]: in vivo; cited from earlier work. This is another data set of the same source.

Where two headings read alike, the source gives them in different places.

For orientation: IC50 means the concentration needed to halve the response being measured. With `CCOC(=O)c1cc2cc(C(=O)OCC)[nH]c2cn1` [2,5-dicarbethoxy-6-azaindole], at benzodiazepine receptor [1], the IC50 is 84 µM.
In the case of `COC(=O)c1cc2c(COCc3ccccc3)c[nH]c2cn1` [Example 1, Methyl 3-Benzyloxymethyl-6-Azaindole-5-Carboxylate], the IC50 on benzodiazepine receptor [2] was 750 nM. The “memory-enhancing effect during the passive avoidance test” value in the data set with female Swiss mice is given as “memory-enhancing effect of the compound during the passive avoidance test with learning in a single test has therefore been revealed”. Besides, the “animals treated with the molecule that learnt to avoid the electric shock” value in the data set with female Swiss mice (24 hours) was determined as 75%. In data set [3], the “change of the potential difference (PD) of the oocyte” value (shortened to “change of the potential difference”) was “slight reduction of the PD” and the “pharmacological profile at the benzodiazepine receptor” value is listed as “partial inverse agonist”. In data set [4], the convulsions result is “None of the mice showed the least convulsion”.
In turn, `COCc1c[nH]c2cnc(C(=O)OC)cc12` [Example 2] gave a 50% inhibitory concentration (IC50) against benzodiazepine receptor [2] of 1500 nM.
On the same count and under the same terms, next, `COC(=O)c1cc2c(COCc3ccccc3F)c[nH]c2cn1` [Example 3]: 65 nM; `COC(=O)c1cc2c(COCc3cccc(F)c3)c[nH]c2cn1` [Example 4]: 100 nM.
For `COC(=O)c1cc2c(COCc3ccc(F)cc3)c[nH]c2cn1` [Example 5], it took 75 nM to reach half-maximal inhibition against benzodiazepine receptor [2] (IC50).
The same measure, in the same setting: next, `COC(=O)c1cc2c(COCc3ccccc3[N+](=O)[O-])c[nH]c2cn1` [Example 6]: 1200 nM; `COC(=O)c1cc2c(COCc3cccc([N+](=O)[O-])c3)c[nH]c2cn1` [Example 7]: 1300 nM; `COC(=O)c1cc2c(COCc3ccc([N+](=O)[O-])cc3)c[nH]c2cn1` [Example 8]: 300 nM.
Same read-out and setting: next, `COC(=O)c1cc2c(COCc3cccc(OC)c3)c[nH]c2cn1` [Example 9]: 10000 nM.
Same read-out and setting: next, `COC(=O)c1cc2c(COCCc3ccccc3)c[nH]c2cn1` [Example 10]: 8 nM; `COC(=O)c1cc2c(COCC=Cc3ccccc3)c[nH]c2cn1` [Example 11]: 150 nM; `O=C(Nc1ccccc1C(=O)O)c1cc2cc[nH]c2cn1` [Example 12, 5-Phenylamido-6-Azaindole-2'-Carboxylic Acid]: 300 nM.
In the case of `O=C(Nc1ccccc1)c1cc2cc[nH]c2cn1` [Example 13], it took 7000 nM to reach half-maximal inhibition against benzodiazepine receptor [2] (IC50).
`O=C(O)c1cccc(NC(=O)c2cc3cc[nH]c3cn2)c1` [Example 14] registered an IC50 against benzodiazepine receptor [2] of 5500 nM.
`O=C(O)c1ccc(NC(=O)c2cc3cc[nH]c3cn2)cc1` [Example 15]: the IC50 at benzodiazepine receptor [2] stood at 2300 nM.
With `CCOC(=O)c1ncn2c1CN(C)C(=O)c1cc(F)ccc1-2` [Flumazenil], in the data set on benzodiazepine receptor [5], the “functional class at the benzodiazepine receptor” value (from here on “functional class”) is reported as “antagonists of the benzodiazepine receptor”. Moreover, the “memory-enhancing properties in man” value in the data set on man is given as “memory-enhancing properties were revealed”.
As to `CCOC(=O)c1ncc2[nH]c3cccc(OCc4ccccc4)c3c2c1COC` [ZK 91296], the “pharmacological profile at the benzodiazepine receptor” value in data set [3] was “partial agonist”. Also, the “in vivo properties compared with diazepam” value in data set [6] is “properties analogous to those of diazepam in vivo (anxiolytic, anticonvulsant, and the like)”.
For `CCOC(=O)c1ncc2[nH]c3ccc(OCc4ccccc4)cc3c2c1COC` [ZK 93423], the “in vivo properties compared with diazepam” value in data set [6] was “properties analogous to those of diazepam in vivo (anxiolytic, anticonvulsant, and the like)”.
Take `CCOC(=O)c1ncc2[nH]c3cccc(OC(C)C)c3c2c1C` [ZK 93426]: in the data set on benzodiazepine receptor [5], the “functional class” value is recorded as “antagonists of the benzodiazepine receptor”. The “memory-enhancing properties in man” value in the data set on man is reported as “memory-enhancing properties were revealed”.
Take `CN1C(=O)CN=C(c2ccccc2)c2cc(Cl)ccc21` [diazepam]: the “change of the potential difference” value in data set [3] is “great increase”.
As for `CCOC(=O)c1cc2c(cn1)[nH]c1ccccc12` [β-CCE, ethyl ester of β-carboline-3-carboxylic acid], in the data set with mice, the proconvulsant effect entry is “proconvulsant in mice”. The IC50 in data set [7] is 4 nM.
For the compound `COC(=O)c1cc2c(cn1)[nH]c1ccccc12` [β-CCM], the “functional class” value with benzodiazepine receptor [5] is “inverse agonists of the benzodiazepine receptor”. In addition, the “effect on learning and memory” value in data set [8] was “positive effect on learning and memory”. In addition, the “change of the potential difference” value in data set [3] is recorded as “significant reduction”. Besides, the convulsant activity entry in data set [9] is recorded as “highly convulsant activity”.
